Measurements from US20250064733A1, “USE OF PEG-BASED INTERPOLYMER COMPLEXES FOR IMPROVED SOLUBILIZATION F BCS CLASS II DRUGS” (Dow Global Technologies LLC, priority 2022, published 2025).

Assay: Apparent aqueous solubility of drug in 1% polymer solution (30 min standing, centrifugation, HPLC of supernatant)
Format: physicochemical
Settings: water without polymer; reference value for the increase; read-out: aqueous probucol solubility
Experimental: The following materials are used. The polyacrylic acid (PAA) has a molecular weight of about 1800, the polyethylene glycol used has either a molecular weight of 4000 or 8000 (as indicated in Table I below). The API chosen is either Probucol (>98% purity) or Ketoprofen (>98% purity). Each polymer or polymer combination shown in Table 1 is added to water in an amount to form 1% polymer solutions. Concentrated API solutions in methanol are prepared by adding 0.2 grams of drug to 10 ml of methanol (20 g/L of drug in methanol).
For each example in Table 1, 912 μl of the indicated polymer solution is transferred into individual vials. Then, 48 μl of drug solution in methanol is added to the polymer solution. These mixtures are agitated via three cycles of aspiration and dispensing using the EVO 200 pipettes. […]
The solubilized drug concentration in each taken aliquot was determined by reverse phase high-performance liquid chromatography (HPLC) analysis. […]
The drug concentration is determined from the measured elution profile by using a linear calibration curve for the respective drug, which was generated by determining the least squares fit of a straight line that described the relation between the concentration of four solutions of known concentrations (about 250, 500, 750, and 1000 mg/L) and the respective peak area integral after injection of 2 μL of each drug in methanol. […]

A solubility at 30 min of 0.042 µg/mL was found for `CC(C)(Sc1cc(C(C)(C)C)c(O)c(C(C)(C)C)c1)Sc1cc(C(C)(C)C)c(O)c(C(C)(C)C)c1` [control, Probucol] in this work.
